Reference: patent publication US5134150A, “Inhibition of the 5-lipoxygenase pathway” (priority 1989, dated 1992)
Read-outs that look alike come from different tables or passages of the source. Values belong to the compound of their own block, whether it stands above or below them.

Key:
[1] = test system: area of infarction following coronary occlusion; conditions: dogs; cited from earlier work
lipoxygenase = conditions: in vitro; cited from earlier work
psoriasis = conditions: in vivo; cited from earlier work
[2] = test system: LTC4 production by human monocytes; assay: LTC4 production by human monocytes; type: cell-based; set-up: key to IC50, LTC4 production: NS = not significant; conditions: A23187-stimulated human monocytes; for IC50: Monocyte
Procedure: The compounds of Formula (I) were evaluated for their ability to inhibit the production of LTC4 by human monocytes according to the following assay. Human monocytes were prepared from whole blood supplied by the American Red Cross. The blood was fractinated by a two-step procedure employing sedimentation on Ficoll followed by sedimentation on Percoll. […] Non-adherent cells were removed by washing. […] When drugs were evaluated, they were added to the cells 30 minutes prior to the A23187. Supernatants were collected, […] by centrifugation and stored frozed at -20° C. until assay. The LTC4 content was determined by using a New England Nuclear Leukotriene C-4 (^3 H) RIA Kit as per instructions.

[3] = test system: Arachidonic Acid-Induced Inflammation of the Mouse Ear; assay: Arachidonic acid-induced mouse ear inflammation; type: in vivo, mouse (male Balb/c); conditions: for inhibition in vivo at 50 mg/kg: Mus musculus, 1 h, Table 7A, read-out: % Inhibition of Ear Swelling
Excerpt: (§1) In the following Examples where mice were used, they were male Balb/c mice (20-28 g), and where rats were used, they were male Lewis rats (180-210 g). All mice and rats were obtained from Charles River Breeding Laboratories, Kingston, N.Y. Within a single experiment, mice and rats were sex and age matched.
(§2) The compounds of Formula (I) were used either as the free base or in the appropriate salt form. Levamisole was used as the hydrochloride salt. The compounds were homogenized in 0.5% tragacanth. Compounds were administered by gavage at the indicated dose in a final volume of 10 ml/kg. Nordihydroguaiaretic acid (NDGA) was solubilized in dimethylacetamide and diluted with olive oil for subcutaneous administration.
Arachidonic acid in acetone ([…]) was applied to the inner surface of the left ear. The thickness of both ears was then measured with a dial micrometer one hour after treatment, and the data were expressed as the change in thickness (10^-3 cm) between treated and untreated ears.
Test compounds were given orally in 0.5% tragacanth at the times indicated in the text prior to the topical application of arachidonic acid.
Parenteral administration of compound was accomplished by subcutaneous injection of solution as indicated.

[4] = test system: 5-lipoxygenase and LTA4 synthetase; assay: Di-HETE / LTB4 production by high speed supernatant of RBL-1 cells; type: biochemical; conditions: RBL-1 high speed supernatant; Table 9A; read-out: 5-LO IC50 (LTB4 production)
Procedure: (§3) For in vitro experiments, compounds were dissolved at appropriate concentrations in ethanol or DMSO (dimethylsulfoxide) (final concentration≤1.0%) and then diluted to final concentrations using the buffers indicated in the text.
(§4) The activities of these enzymes in extracts of RBL-1 cells were assayed using the method of Jakschik and Lee, Nature, 287, 51-52 (1980). RBL-1 cells were obtained from the American Type Culture Collection (#CRL 1378) and were grown at 37° C. (5% CO2 in air) in spinner culture in MEM supplemented with 10% heat inactivated fetal calf serum. Harvested cells were washed with 50 mM sodium phosphate buffer, pH 7.0, containing 1 mM EDTA and 0.1% gelatin, resuspended in fresh buffer (5×10^7 cells/ml) and disrupted by nitrogen cavitation using the Parr bomb at 750 psi for 10 min. The broken cell extract was then centrifuged at 10,000× g for 20 minutes (min) and the supernatant centrifuged at 100,000 xIg for 60 min. Aliquots (0.25 mls) of the supernatant were preincubated with or without drugs for 10 min, after which 10 μl CaCl2 (50 mM) was added and the reaction was initiated with 2.5 μl of 2.5 mM arachidonic acid-1-^14 C (final concentration was 25 μM; specific activity 20,000 dpm/nmole). After incubation for 3 min at 37° C., the reaction was terminated by addition of 2 volumes (0.5 ml) ice cold acetone and the sample was allowed to deproteinize on ice for 10 min prior to centrifugation at 1,000× g for 10 min. The deproteinized supernatant was adjusted to pH 3.5 with 2N formic acid and extracted with 2 volumes of ice cold ethyl acetate. The extracted samples were dried under argon, redissolved in ethyl acetate and applied to Whatman LK5D thin layer chromatography (TLC) plates which were developed using the A-9 solvent system [organic phase of ethyl acetate: 2,2,5-trimethylpentane:acetic acid: water (110:50:20:10)] described by Hamberg and Samuelsson, J. Biol. Chem., 241, 257-263 (1966). Arachidonic acid, 5-HETE, LTB4 and PGD2 were quantified with a Berthold LB 2832 autoscanner.
(§5) The 5-lipoxygenase and LTA4 synthetase activities were further studied under the following conditions. An additional centrifugation of the RBL-1 supernatant was run at 100,000× g for 60 min, to remove the particulate cyclooxygenase activity. Sample incubation was done under conditions similar to those described above, i.e., 2 mM CaCl2 and […] arachidonic acid-1-^14 C, however, with an incubation time of 5 min at 5° C. Under these conditions, only the 5-lipoxygenase pathway metabolites were detectable. The 5-HETE and di-HETEs were formed at a linear rate, and substantial amounts of the arachidonic acid-1-^14 C substrate were utilized.

5-Lipoxygenase = molecular target: T1, 5-Lipoxygenase (Rattus norvegicus, UniProt P12527); assay: 5-HETE production by high speed supernatant of RBL-1 cells; type: biochemical; conditions: for IC50: RBL-1 high speed supernatant, Table 8A
T1 construct: The activities of these enzymes in extracts of RBL-1 cells were assayed; host or cells: RBL-1
T1 sequence (P12527 1-673): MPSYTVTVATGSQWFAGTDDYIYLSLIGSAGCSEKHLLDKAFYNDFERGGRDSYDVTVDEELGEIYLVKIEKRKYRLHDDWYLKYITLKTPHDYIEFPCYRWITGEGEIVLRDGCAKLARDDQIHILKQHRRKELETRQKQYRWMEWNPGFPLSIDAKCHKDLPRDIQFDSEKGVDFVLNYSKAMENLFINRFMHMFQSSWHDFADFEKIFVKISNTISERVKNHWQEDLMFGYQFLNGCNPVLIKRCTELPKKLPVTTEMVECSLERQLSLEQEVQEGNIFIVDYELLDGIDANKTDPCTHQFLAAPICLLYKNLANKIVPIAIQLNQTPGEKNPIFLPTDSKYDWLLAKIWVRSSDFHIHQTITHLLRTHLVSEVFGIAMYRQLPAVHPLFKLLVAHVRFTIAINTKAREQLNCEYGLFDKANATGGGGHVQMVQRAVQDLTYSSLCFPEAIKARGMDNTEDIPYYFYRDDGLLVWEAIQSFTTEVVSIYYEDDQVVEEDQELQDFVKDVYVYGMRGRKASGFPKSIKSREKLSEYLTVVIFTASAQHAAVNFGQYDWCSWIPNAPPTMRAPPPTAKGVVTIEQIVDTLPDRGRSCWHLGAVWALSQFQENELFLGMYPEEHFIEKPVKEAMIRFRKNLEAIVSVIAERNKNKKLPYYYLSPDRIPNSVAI
Procedure: as §3, §4, §5

[5] = test system: Infiltration of Polymorphonuclear Leukocytes into Sites of Carrageenan-Induced Inflammation; assay: Mouse carrageenan peritonitis (PMN infiltration); type: in vivo, mouse (male Balb/c); conditions: carrageenan peritonitis, mice
Excerpt: as §1, §2
Mice were pretreated with either the test compound or vehicle one hour before the intraperitoneal injection of a 1.0% carrageenan suspension in saline (0.2 ml/mouse). Mice were sacrificed by cervical dislocation two hours after injection, and 3.0 ml of phosphate buffered saline, without Ca^++ or Mg^++, was injected into the peritoneum. Following massage, a 2.0 ml aliquot of the lavage fluid was removed, and the total cell count determined on a Coulter counter and differential cell count determined by microscopic examination of Giesma-stained slides.

[6] = test system: Experimental Allergic Encephalomyelitis Induced in Female Lewis Rats; assay: Experimental allergic encephalomyelitis, hindleg paralysis; type: in vivo, rat (female Lewis); conditions: 0.3 mg/kg/day, p.o.
Procedure: EAE is induced in Female (Charles River) Lewis rats by a single intradermal injection of 0.1 ml of an encephalitogenic emulsion consisting of equial parts of a 50% w/v homogenate of guinea pig spinal cord and mid-brain in 0.5% aqueous phenol and Freund's complete adjuvant (4 mg/ml killed, dried M. butyricum) into a hindpaw (left) footpad. […] Any animal which becomes paralyzed during the course of the experiment is considered to have developed EAE whether or not the paralysis is permanent. Test compounds are administered daily beginning on the day of injection, for 19 days, exclusive of days 5, 6 12 and 13. Drug activity is determined by comparing the indicidence of EAE (paralysis) of the treated group with a control (vehicle) group. The level of significant difference between the treated groups and control groups is determined by a Chi-square test using a 2×2 contingency table. Body weight changes from day 0 are also statistically compared to the control group using a Student "t" test.

rheumatoid arthritis = conditions: preliminary observation; cited from earlier work
[7] = test system: LTB4 and 5-HETE production; conditions: in vitro; cited from earlier work
[8] = 25 mg/kg, p.o., pretreated at 2 hrs

Compound: NC1=NN(c2cccc(C(F)(F)F)c2)CC1 [BW755-C]
Area of infarction, in words [1]: reduced

Compound: CC(C(=O)O)c1ccc2oc(-c3ccc(Cl)cc3)nc2c1 (stereo not drawn) [Benoxaprofen]
Lipoxygenase inhibitory activity, in words (lipoxygenase): in vitro lipoxygenase inhibitory activity | Effect on psoriasis, in words (psoriasis): promising effect

Compound: C[C@@H]1C[C@H]2[C@@H]3CCC4=CC(=O)C=C[C@]4(C)[C@@]3(F)[C@@H](O)C[C@]2(C)[C@@]1(O)C(=O)CO [Dexamethasone, reference compound]
% Change (ear thickness) [3, 8]: -35% | Increase in Ear Thickness at 1 Hour [3, 8]: 18.2 ± 4.1 × 10-3 cm | Mouse ear edema, result in words ([3]; mouse, in vivo): only moderately effective | PMN infiltration, result in words [5]: effective

Compound: CN(Cc1cnc2nc(N)nc(N)c2n1)c1ccc(C(=O)N[C@@H](CCC(=O)O)C(=O)O)cc1 [Methotrexate]
Hindleg paralysis - cumulative incidence, day 9 to 13 [6]: 0/11 | Hindleg paralysis - cumulative incidence, day 14 to 18 [6]: 0/11

Compound: O=C(O)c1cc(/N=N/c2ccc(S(=O)(=O)Nc3ccccn3)cc2)ccc1O [Sulfasalazine]
Efficacy in rheumatoid arthritic patients, in words (rheumatoid arthritis): efficacy, including remission | Inhibition of LTB4 and 5-HETE production, in words [7]: inhibit LTB4

Now from value to compound, other results behind:

IC50, LTC4 production [2]: NS | IC50 [4]: 17 µM
Compound: Fc1ccc(-c2c(-c3ccncc3)nc3n2CCS3)cc1 [Compound 12]
inhibition in vivo at 50 mg/kg ([3]; 50 mg/kg s.c. or i.p.): 58%

IC50 [2]: 1.2 µM | IC50 [4]: 0.1 µM
Compound: CCNc1ccc(-c2nc3n(c2-c2ccc(NCC)cc2)CCS3)cc1 [Compound 17]
inhibition in vivo at 50 mg/kg ([3]; 50 mg/kg s.c. or i.p.): 38%

IC50 [2]: 9.9 µM | IC50 [4]: 1.9 µM
Compound: COc1ccc(-c2nc3n(c2-c2ccncc2)CCS3)cc1 [Compound 18]
inhibition in vivo at 50 mg/kg ([3]; po, 50 mg/kg p.o.): 40%

IC50 (5-Lipoxygenase): > 10 µM | inhibition at 10 µM (5-Lipoxygenase; read-out: inhibition of 5-HETE at 10 μM, 10 μM, Table 8A footnote): 46% | IC50 [4]: > 10 µM
Compound: Fc1ccc(-c2nc3n(c2-c2ccc(F)cc2)CCS3)cc1 [Compound 26]

IC50 (5-Lipoxygenase): 28 µM
Compound: FC(F)(F)c1ccc(-c2nc3n(c2-c2ccc(C(F)(F)F)cc2)CCS3)cc1 [Compound 27]

IC50 [2]: 0.5 µM | IC50 [4]: 1000 µM
Compound: [O-][S+]1CCn2c1nc(-c1ccc(F)cc1)c2-c1ccncc1 (stereo not drawn) [Compound 28, 5-(4-pyridyl)-6-(4-fluorophenyl)-2,3-dihydroimidazo[2,1-b]thiazole-S-oxide]
inhibition in vivo at 50 mg/kg ([3]; 50 mg/kg s.c. or i.p.): 69%

IC50 [2]: 0.5 µM | IC50 [4]: > 100 µM
Compound: O=S1(=O)CCn2c1nc(-c1ccc(F)cc1)c2-c1ccncc1 [Compound 29, 5-(4-pyridyl)-6-(4-fluorophenyl)-2,3-dihydroimidazo[2,1-b]thiazole-S-dioxide]
inhibition in vivo at 50 mg/kg ([3]; po, 50 mg/kg p.o.): 67%
